Assay results from publication PMC9596378, “Discovery and molecular basis of subtype-selective cyclophilin inhibitors” (Nature Chemical Biology, 2022).
Where “and” joins values, the source holds several entries; their conditions need not be identical. Identical values can stand only once. Like-named read-outs stand apart in the source and are kept apart here.

Experiments:
[1] = target: T1, CypG (Homo sapiens, UniProt Q13427); assay: Chymotrypsin coupled prolyl-isomerase assay; assay type: biochemical
T1 construct: PPIG (UniProtKB Entry Q13427: residues 1–179); His6 with thrombin site (pET28a LIC leader) (N); host or cells: E. coli BL21(DE3)
T1 sequence (Q13427 1-179): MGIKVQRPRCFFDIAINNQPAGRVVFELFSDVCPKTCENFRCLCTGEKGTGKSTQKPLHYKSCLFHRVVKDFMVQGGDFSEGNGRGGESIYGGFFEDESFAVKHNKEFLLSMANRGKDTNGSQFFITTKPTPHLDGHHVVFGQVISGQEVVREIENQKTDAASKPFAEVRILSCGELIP
Outline: (§1)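 Steps: cyclophilin plus compound 5 min at 2–3 °C; α-chymotrypsin added, 5 min more; Suc-AAPF-AMC substrate in LiCl/trifluoroethanol injected and fluorescence followed 330 s. Finals: 5 nM enzyme, 25 µM chymotrypsin, 5 µM substrate, 0.25% DMSO.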

[2] = target: T2, NKTR (Homo sapiens, UniProt P30414); assay: Chymotrypsin coupled prolyl-isomerase assay; assay type: biochemical;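 as to NKTR prolyl-isomerase raw dose-response reading (Fig. 6c): Per-well observed rate constant from one-phase association fit in s−1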
T2 construct: NKTR (UniProtKB Entry P30414: residues 7–179); host or cells: E. coli BL21(DE3)
T2 sequence (P30414 7-179): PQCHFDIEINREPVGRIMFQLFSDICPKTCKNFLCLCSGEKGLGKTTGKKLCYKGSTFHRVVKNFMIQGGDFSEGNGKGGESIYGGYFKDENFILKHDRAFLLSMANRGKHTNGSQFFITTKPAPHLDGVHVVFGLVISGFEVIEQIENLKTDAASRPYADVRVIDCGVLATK

[3] = target: T3, CypB (Homo sapiens, UniProt P23284); assay: biochemical;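 as to CypB prolyl-isomerase raw dose-response reading (Fig. 6c): observed rate constant per well from one-phase association fit in s−1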
T3 construct: PPIB (UniProtKB Entry P23284: residues 34–216); His6 with TEV site (2BT vector leader) (N); made in house; host or cells: E. coli BL21(DE3)
Outline: as §1

[4] = target: Cyp40 (Homo sapiens, UniProt Q08752); assay: Chymotrypsin coupled prolyl-isomerase assay;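 as to Cyp40 prolyl-isomerase raw dose-response reading (Fig. 6c): observed rate constant per well from one-phase association fit in s−1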
Outline: as §1

Sequence of Cyp40 (Q08752 1-183): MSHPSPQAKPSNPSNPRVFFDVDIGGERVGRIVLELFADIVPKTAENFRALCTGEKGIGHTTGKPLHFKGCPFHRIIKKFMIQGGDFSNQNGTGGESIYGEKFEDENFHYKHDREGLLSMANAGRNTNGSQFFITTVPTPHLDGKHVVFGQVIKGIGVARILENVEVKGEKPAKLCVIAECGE
T3 sequence (P23284 34-216): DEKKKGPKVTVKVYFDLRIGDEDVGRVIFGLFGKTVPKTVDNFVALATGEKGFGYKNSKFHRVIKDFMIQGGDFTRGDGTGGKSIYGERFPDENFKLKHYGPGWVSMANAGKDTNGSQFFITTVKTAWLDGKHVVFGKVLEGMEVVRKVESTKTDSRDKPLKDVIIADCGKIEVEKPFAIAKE

Structure (SMILES): NC(=O)C1CCNC(=O)C=CC(=O)N2CCCC(Cc3ccccc3)(C2)C(=O)NC(Cc2ccc(-c3ccc(C=O)c(B(O)O)c3)cc2)C(=O)NCc2ccccc2CC(=O)N1 (stereo not shown) [Compound C3A]
- CypG prolyl-isomerase raw dose-response reading (Fig. 6c) ([1]; Dose 0.00457247 µM): 0.04675 and 0.05256 and 0.06278
- CypG prolyl-isomerase raw dose-response reading (Fig. 6c) ([1]; Dose 0.0137174 µM): 0.05042 and 0.05542 and 0.04906
- CypG prolyl-isomerase raw dose-response reading (Fig. 6c) ([1]; Dose 0.0411523 µM): 0.05063 and 0.04839 and 0.04139
- CypG prolyl-isomerase raw dose-response reading (Fig. 6c) ([1]; Dose 0.123457 µM): 0.04982 and 0.05395 and 0.05565
- CypG prolyl-isomerase raw dose-response reading (Fig. 6c) ([1]; Dose 0.37037 µM): 0.04159 and 0.05179 and 0.03978
- CypG prolyl-isomerase raw dose-response reading (Fig. 6c) ([1]; Dose 1.11111 µM): 0.05731 and 0.0555 and 0.05308
- CypG prolyl-isomerase raw dose-response reading (Fig. 6c) ([1]; Dose 3.33333 µM): 0.04975 and 0.046 and 0.05109
- CypG prolyl-isomerase raw dose-response reading (Fig. 6c) ([1]; Dose 10 µM): 0.05239 and 0.04081 and 0.048
- IC50 ([1]; Independent replicate 1, read-out: IC50 CypG): > 10 µM
- IC50 ([1]; Independent replicate 2, read-out: IC50 CypG): ~40 µM
- IC50 ([1]; Independent replicate 3, read-out: IC50 CypG): ~26 µM
- IC50 ([1]; Independent replicate 4, read-out: IC50 CypG): ~50 µM
- IC50 ([1]; wild-type CypG, read-out: Wild-Type Cyclophilin Prolyl Isomerase Inhibition IC50 Values, CypG): 40 µM
- NKTR prolyl-isomerase raw dose-response reading (Fig. 6c) ([2]; Dose 0.00457247 µM): 0.03021 and 0.03304 and 0.03422
- NKTR prolyl-isomerase raw dose-response reading (Fig. 6c) ([2]; Dose 0.0137174 µM): 0.0282 and 0.04075 and 0.02833
- NKTR prolyl-isomerase raw dose-response reading (Fig. 6c) ([2]; Dose 0.0411523 µM): 0.03114 and 0.03658 and 0.02835
- NKTR prolyl-isomerase raw dose-response reading (Fig. 6c) ([2]; Dose 0.123457 µM): 0.03167 and 0.03382 and 0.0302
- NKTR prolyl-isomerase raw dose-response reading (Fig. 6c) ([2]; Dose 0.37037 µM): 0.03191 and 0.03367 and 0.02844
- NKTR prolyl-isomerase raw dose-response reading (Fig. 6c) ([2]; Dose 1.11111 µM): 0.03612 and 0.0297 and 0.03587
- NKTR prolyl-isomerase raw dose-response reading (Fig. 6c) ([2]; Dose 3.33333 µM): 0.03487 and 0.03208 and 0.0346
- NKTR prolyl-isomerase raw dose-response reading (Fig. 6c) ([2]; Dose 10 µM): 0.02874 and 0.02696 and 0.02891
- IC50 ([2]; Independent replicate 1, read-out: IC50 NKTR): > 10 µM
- IC50 ([2]; Independent replicate 2, read-out: IC50 NKTR): ~30 µM
- IC50 ([2]; Independent replicate 3, read-out: IC50 NKTR): ~30 µM
- IC50 ([2]; Independent replicate 4, read-out: IC50 NKTR): ~40 µM
- IC50 ([2]; wild-type NKTR, read-out: Wild-Type Cyclophilin Prolyl Isomerase Inhibition IC50 Values, NKTR): 33 µM
- CypB prolyl-isomerase raw dose-response reading (Fig. 6c) ([3]; Dose 0.00114312 µM): 0.06934 and 0.06783 and 0.08183
- CypB prolyl-isomerase raw dose-response reading (Fig. 6c) ([3]; Dose 0.00342936 µM): 0.07621 and 0.06975 and 0.07172
- CypB prolyl-isomerase raw dose-response reading (Fig. 6c) ([3]; Dose 0.0102881 µM): 0.07116 and 0.04746 and 0.08093
- CypB prolyl-isomerase raw dose-response reading (Fig. 6c) ([3]; Dose 0.0308642 µM): 0.07891 and 0.06745 and 0.0815
- CypB prolyl-isomerase raw dose-response reading (Fig. 6c) ([3]; Dose 0.0925926 µM): 0.06054 and 0.05873 and 0.07182
- CypB prolyl-isomerase raw dose-response reading (Fig. 6c) ([3]; Dose 0.277778 µM): 0.07925 and 0.05977 and 0.05725
- CypB prolyl-isomerase raw dose-response reading (Fig. 6c) ([3]; Dose 0.833333 µM): 0.07516 and 0.05333 and 0.06224
- CypB prolyl-isomerase raw dose-response reading (Fig. 6c) ([3]; Dose 2.5 µM): 0.05113 and 0.04833 and 0.05428
- IC50 ([3]; Independent replicate 1, read-out: IC50 CypB): ~3 µM
- IC50 ([3]; Independent replicate 2, read-out: IC50 CypB): 7 ± 3 µM
- IC50 ([3]; Independent replicate 3, read-out: IC50 CypB): 3 ± 1 µM
- IC50 ([3]; Independent replicate 4, read-out: IC50 CypB): 3 ± 2 µM
- IC50 ([3]; wild-type CypB, read-out: Wild-Type Cyclophilin Prolyl Isomerase Inhibition IC50 Values, CypB): 4 µM
- Cyp40 prolyl-isomerase raw dose-response reading (Fig. 6c) ([4]; Dose 0.00457247 µM): 0.0614 and 0.06993 and 0.05711
- Cyp40 prolyl-isomerase raw dose-response reading (Fig. 6c) ([4]; Dose 0.0137174 µM): 0.05865 and 0.05903 and 0.06506
- Cyp40 prolyl-isomerase raw dose-response reading (Fig. 6c) ([4]; Dose 0.0411523 µM): 0.05035 and 0.06856 and 0.04615
- Cyp40 prolyl-isomerase raw dose-response reading (Fig. 6c) ([4]; Dose 0.123457 µM): 0.06664 and 0.05611 and 0.06364
- Cyp40 prolyl-isomerase raw dose-response reading (Fig. 6c) ([4]; Dose 0.37037 µM): 0.05889 and 0.05946 and 0.05108
- Cyp40 prolyl-isomerase raw dose-response reading (Fig. 6c) ([4]; Dose 1.11111 µM): 0.05961 and 0.05287 and 0.0489
- Cyp40 prolyl-isomerase raw dose-response reading (Fig. 6c) ([4]; Dose 3.33333 µM): 0.034 and 0.04378 and 0.03695
- Cyp40 prolyl-isomerase raw dose-response reading (Fig. 6c) ([4]; Dose 10 µM): 0.03483 and 0.03698 and 0.03412
- IC50 ([4]; IC50 Cyp40, Independent replicate 1): 3 ± 1 µM
- IC50 ([4]; IC50 Cyp40, Independent replicate 2): 1.4 ± 0.5 µM
- IC50 ([4]; IC50 Cyp40, Independent replicate 3): 1.4 ± 0.3 µM
- IC50 ([4]; IC50 Cyp40, Independent replicate 4): 1.9 ± 0.5 µM
- IC50 ([4]; Wild-Type Cyclophilin Prolyl Isomerase Inhibition IC50 Values, Cyp40, wild-type Cyp40): 1.8 µM
